The source of these data is patent US7732493B2, “2-substituted D-homo-estra-1,3,5(10)-trienes as inhibitors of 17β-hydroxy steroid dehydrogenase type 1” (Bayer Schering Pharma Aktiengesellschaft, priority 2004, dated 2010).

This experiment addresses T1, human 17β-hydroxy steroid dehydrogenase type 1 (17β-HSD1) (Homo sapiens, UniProt P14061).
T1 construct: made in house; host or cells: E. coli
T1 sequence (P14061 1-328): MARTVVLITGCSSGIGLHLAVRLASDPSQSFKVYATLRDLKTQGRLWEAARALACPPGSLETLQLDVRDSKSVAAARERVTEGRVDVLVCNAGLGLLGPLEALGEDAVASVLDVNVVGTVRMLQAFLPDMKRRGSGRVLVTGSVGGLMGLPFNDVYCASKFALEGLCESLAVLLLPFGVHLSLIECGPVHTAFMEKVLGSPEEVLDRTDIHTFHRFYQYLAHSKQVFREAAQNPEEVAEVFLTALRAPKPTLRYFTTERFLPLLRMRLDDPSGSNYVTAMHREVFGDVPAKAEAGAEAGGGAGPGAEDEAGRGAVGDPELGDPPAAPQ
The experiment in a line: Inhibition of the activity of human 17β-hydroxy steroid dehydrogenase type 1 (3H-labeled substrate conversion, HPLC). The format is biochemical. To be noted: human enzyme over-expressed in E. coli, bacterial suspension, 37° C., double determination; read-out: 17βHSD1 IC50. The text has this: The test process is well described in the literature [Adamski, J., Sierralta, W. D., Jungblut, P. W., Acta Endocrinol (Copenh.) 121(2) (1989), 161-7] and is depicted below.
Human 17β-hydroxy steroid dehydrogenases (17β-HSDs) are over-expressed in E. coli bacteria as His-Tag proteins or as GST-fusion proteins. The suspensions of the bacterial pellets in isotonic common salt solution are used for the determination of enzyme activities of the 17β-HSDs or for the study of their influence by potential inhibitors (estrogen derivatives).
The measurements are made in double determination and, if necessary, at various concentrations of potential inhibitors (e.g., in determining the IC50 values). In addition to the target enzyme 17β-HSD1, other steroid-metabolizing enzymes are included in the test to study cross reactivities of estrogen derivatives.
The incubation of the samples is carried out at 37° C. in a water bath while being shaken, such that in the control (without substances to be tested), a conversion of about 30% is achieved.
The separation of radiolabeled substrate and product is then carried out, after extraction with 1 ml of reversed phase-(RP-18)-cartridges, by means of HPLC on an RP18 column with acetonitrile:water 1:1 (v/v) as a mobile phase. The radioactivity is detected with the aid of a flow-scintillation counter.
The evaluation of the substrate conversion with and without substances to be tested is performed by the integration of the substrate and product peaks. The conversion of the control is normalized to 100% conversion.

In the case of “2-Bromo-17a-oxo-17a-homoestra-1,3,5(10)-trien-3-ol [Example 3]”, the IC50 (in general, the point on the concentration scale where inhibition reaches its midpoint) came to 52 nM.

As to “2-Iodo-17a-oxo-17a-homoestra-1,3,5(10)-trien-3-ol [Example 4]”, the IC50 was 52 nM.

Take `COc1cc2c(cc1O)CC[C@@H]1[C@@H]2CC[C@]2(C)C(=O)CCC[C@@H]12` [Example 1, 2-Methoxy-17a-oxo-17a-homoestra-1,3,5(10)-trien-3-ol]: the 50% inhibitory concentration (IC50) stood at 85 nM.

On to `C=CCc1cc2c(cc1O)CC[C@@H]1[C@@H]2CC[C@]2(C)C(=O)CCC[C@@H]12` [Example 7, 2-Allyl-17a-oxo-17a-homoestra-1,3,5(10)-trien-3-ol], for which the IC50 was 24 nM.
